Test results from US11147272B2, “Pyridone compounds and agricultural and horticultural fungicides comprising the same as active ingredients” (MITSUI CHEMICALS AGRO, INC., priority 2017, dated 2021).

Experiments:
Botrytis cinerea = assay: Test Example B: Gray mold on tomato; conditions: Gray mold on tomato; for Test B control value class: class of control value; for Test B control value: control value class
Procedure: Seeds of a test plant (tomato variety: Oogata Fukuju) were planted and cultivated until three to five first leaves (true leaves) appeared. In the test, the inventive compounds were dissolved into dimethyl sulfoxide-methanol mixture solution (volume ratio: 9/1), and the resultant solutions were diluted with well water to a concentration of 250 ppm to obtain the drug solutions. The drug solutions were sprayed to the test plant (2.5 ml/pot). After the drug solutions dried, a conidial suspension (4-8×10^5 conidia/ml) of Botrytis cinerea was inoculated to the plant by spraying. After the inoculation, the plant was kept in a mist chamber at room temperature of 20 to 23° C. for about 48 hours to promote the onset of disease. The degrees of disease development were investigated 2 to 3 days after the inoculation, and the effectiveness of the drug solutions was evaluated.
(§1) In Test Examples described above, the degrees of disease development were evaluated in increments of 0.05 from 0 (as no incidence of disease) to 3 (as the degree of disease development in an untreated plant group). Further, control values were calculated using the following equation based on the degree of disease development.
(§2) n=Degree of disease development in each treated group
In the table, H: more than 50% control value, L: 50% or less control value, and nt: not tested.

Plasmopara viticola = assay: Test Example G: Downy mildew on vine; conditions: 250 ppm spray; for Test G control value class: Downy mildew on vine (Neomuscat), 2.5 ml/pot, assessed 7 to 10 days after inoculation; for Test G control value: Downy mildew on vine, 7 to 10 days after inoculation
Puccinia recondita = assay: Test Example E: Brown rust on wheat; assay type: in vivo; conditions: Brown rust on wheat; for Test E control value class: class of control value; for Test E control value: control value class
Alternaia brassicicola = assay: Test Example C: Alternaria sooty spot on cabbage; assay type: in vivo; conditions: Alternaria sooty spot on cabbage; for Test C control value class: class of control value; for Test C control value: control value class
Excerpt: Seeds of a test plant (cabbage variety: Shikidori) were planted and cultivated until the cotyledons extended.
<Control Value> Control value=100{1−(n/3)}

[1] = test system: Colletotrichum orbiculare; assay: Test Example H: Anthracnose on cucumber; conditions: 250 ppm spray; for Test H control value class: Anthracnose on cucumber (Sagami Hanjiro), 2.5 ml/pot, assessed 6 to 10 days after inoculation; for Test H control value: Anthracnose on cucumber, 6 to 10 days after inoculation
[2] = test system: Blumeria graminis f. sp. hordei; assay: Test Example D: Powdery mildew on barley; conditions: Powdery mildew on barley; for Test D control value class: class of control value; for Test D control value: control value class
Procedure: Seeds of a test plant (barley variety: Akashinriki) were planted and cultivated until the first leaves appeared. In the test, the inventive compounds were dissolved into dimethyl sulfoxide-methanol mixture solution (volume ratio: 9/1), and the resultant solutions were diluted with well water to a concentration of 250 ppm to obtain the drug solutions. The drug solutions were sprayed to the test plant (2.5 ml/pot). After the drug solutions dried, conidia of Blumeria graminis f. sp. hordei were inoculated to the plant by shaking off. The degrees of disease development were investigated 6 to 10 days after the inoculation, and the effectiveness of the drug solutions was evaluated.
as §1, §2

Phytophthora infestans = assay: whole plant or invertebrate; assay type: in vivo; conditions: Late blight on tomato; for Test F control value class: class of control value; for Test F control value: control value class
Magnaporthe grisea = assay: whole plant or invertebrate; assay type: in vivo; conditions: Blast on rice; for Test A control value class: class of control value; for Test A control value: control value class

SMILES	Test B control value class (Botrytis cinerea)	Test G control value class (Plasmopara viticola)	Test E control value class (Puccinia recondita)	Test C control value class (Alternaia brassicicola)	Test H control value class [1]	Test D control value class [2]	Test F control value class (Phytophthora infestans)	Test A control value class (Magnaporthe grisea)	Test B control value (Botrytis cinerea)	Test G control value (Plasmopara viticola)	Test E control value (Puccinia recondita)	Test C control value (Alternaia brassicicola)	Test H control value [1]	Test D control value [2]	Test F control value (Phytophthora infestans)	Test A control value (Magnaporthe grisea)
CCn1c(-c2c(F)cccc2F)c(CN(C)C(C)C)cc(Cl)c1=O [compound 80]	H (more than 50% control value)	L (50% or less control value)	L (50% or less control value)	L (50% or less control value)	H (more than 50% control value)	L (50% or less control value)	H (more than 50% control value)	L (50% or less control value)	–	–	–	–	–	–	–	–
CCn1c(-c2ccc(C#N)cc2)c(C(=O)C(C)C)cc(Cl)c1=O [compound 234]	–	–	–	–	–	–	–	–	L (50% or less control value)	L (50% or less control value)	L (50% or less control value)	H (more than 50% control value)	L (50% or less control value)	L (50% or less control value)	L (50% or less control value)	L (50% or less control value)
CC(C)Cc1cc(Cl)c(=O)n(C)c1-c1ccc(Cl)cc1Cl [compound 137]	H (more than 50% control value)	H (more than 50% control value)	H (more than 50% control value)	H (more than 50% control value)	H (more than 50% control value)	H (more than 50% control value)	L (50% or less control value)	H (more than 50% control value)	–	–	–	–	–	–	–	–
CCc1cc(Br)c(=O)n(CC)c1-c1ccc(F)cc1C [compound 352]	–	–	–	–	–	–	–	–	H (more than 50% control value)	L (50% or less control value)	H (more than 50% control value)	H (more than 50% control value)	H (more than 50% control value)	H (more than 50% control value)	L (50% or less control value)	H (more than 50% control value)
CCc1cc(Cl)c(=O)n(C)c1-c1ccc(OC)cc1Cl [compound 324]	–	–	–	–	–	–	–	–	H (more than 50% control value)	H (more than 50% control value)	H (more than 50% control value)	H (more than 50% control value)	H (more than 50% control value)	L (50% or less control value)	L (50% or less control value)	L (50% or less control value)
CCn1c(-c2c(F)cc(F)cc2F)c(COc2ccc(Cl)cc2)cc(Cl)c1=O [compound 311]	–	–	–	–	–	–	–	–	L (50% or less control value)	L (50% or less control value)	H (more than 50% control value)	L (50% or less control value)	L (50% or less control value)	L (50% or less control value)	L (50% or less control value)	L (50% or less control value)
CCOc1cc(F)c(-c2c(C(C)(O)C(C)C)cc(Cl)c(=O)n2CC)c(F)c1 (centres unmarked) [compound 226]	–	–	–	–	–	–	–	–	H (more than 50% control value)	L (50% or less control value)	H (more than 50% control value)	H (more than 50% control value)	H (more than 50% control value)	L (50% or less control value)	L (50% or less control value)	H (more than 50% control value)
